Drawing on US9670204B2, “Compounds and pharmaceutical compositions thereof for the treatment of inflammatory disorders” (Galapagos NV, priority 2013, dated 2017), this text covers IC50 for 21 compounds.

Assay [1] addresses T1, hENPP2 (UniProtKB/SwissProt Q13822) (Homo sapiens (Human), UniProt Q13822). Kind of assay: hENPP2 biochemical assay, LPC as substrate. To be noted: LPC (palmitoyl 16:0) as substrate. The method in brief: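 Human ENPP2 in 50 mM Tris-HCl pH 8.5, 500 mM NaCl, 5 mM KCl, 10 mM CaCl2, 0.1% fatty-acid-free BSA, reacted 30 min at 37 °C with LPC 16:0 (150 µM solution added 1:1). Released choline measured via choline oxidase/peroxidase/TOOS/4-aminoantipyrine quinoneimine dye at 555 nm; IC50 reported.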

The target of assay [2] is T1, hENPP2. The experiment in a line: fluorescent hENPP2 biochemical assay, FS-3 as substrate. To be noted: read-out: FS3-IC50. The method in brief: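 IC50 values come from fluorescence gained as FS-3 is hydrolysed (ex 485, em 520 nm). The reaction, started by adding 0.75 μM FS-3 solution, runs 30 min at 30° C after a 30 min room-temperature preincubation of compound with enzyme. Buffer: Tris-HCl pH 8.0 with NaCl, KCl, MgCl2, CaCl2 and 0.1% BSA.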

Assay [3] deals with LPA 18:2 in rat plasma. Kind of assay: Rat whole blood (plasma) LPA assay. It counts as biochemical. Particulars: 2 h at 37 C, LPA 18:2 by LC-MS/MS. The method in brief:
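Heparinised rat plasma spiked with compound (1% DMSO final), incubated 2 h at 37 °C, 5% CO2 with shaking; controls kept at −20 °C. After methanol precipitation with LPA 17:0 internal standard, LPA 18:2 measured by LC-MS/MS (C18, isocratic), relative quantities from peak area without calibration.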

Each structure is given as a SMILES string.

For the compound `CN(C)C(=O)CN1CCC(c2ccc3nc(CCC#N)c(N(C)c4nc(-c5ccc(F)cc5)cs4)n3c2)CC1` [Compound 174, 2-(4-(2-(2-cyanoethyl)-3-((4-(4-fluorophenyl)thiazol-2-yl)(methyl)amino)imidazo[1,2-a]pyridin-6-yl)piperidin-1-yl)-N,N-dimethylacetamide], the half-maximal inhibitory concentration (IC50) in assay [1], in assay [2] and in assay [3] was 0.01 to 100 nM each time.

For `CCc1nc2ccc(C3CCN(CC(=O)N4CC[C@H](O)C4)CC3)cn2c1N(C)c1nc(-c2ccc(F)cc2)cs1` [Compound 112, (S)-2-(4-(2-ethyl-3-((4-(4-fluorophenyl)thiazol-2-yl)(methyl)amino)imidazo[1,2-a]pyridin-6-yl)piperidin-1-yl)-1-(3-hydroxypyrrolidin-1-yl)ethanone], the figures for the IC50 in assay [1], in assay [2] and in assay [3] were 100 to 500 nM, 0.01 to 100 nM and 100 to 500 nM, respectively.

As to `CCc1nc2ccc(C3CCN(S(C)(=O)=O)CC3)cn2c1N(C)c1nc(-c2ccc(F)cc2)c(C(=O)C(F)(F)F)s1` [Compound 160, 1-(2-((2-ethyl-6-(1-(methylsulfonyl)piperidin-4-yl)imidazo[1,2-a]pyridin-3-yl)(methyl)amino)-4-(4-fluorophenyl)thiazol-5-yl)-2,2,2-trifluoroethanone], the IC50 lay in the range of 100 to 500 nM in assay [1], 0.01 to 100 nM in assay [2] and 0.01 to 100 nM in assay [3].

With `CCc1nc2ccc(C3=CCN(S(C)(=O)=O)CC3)cn2c1N(C)c1nccc(-c2ccc(F)cc2)n1` [Compound 187, 2-ethyl-N-(4-(4-fluorophenyl)pyrimidin-2-yl)-N-methyl-6-(1-(methylsulfonyl)-1,2,3,6-tetrahydropyridin-4-yl)imidazo[1,2-a]pyridin-3-amine], the IC50 in assay [1] was > 1000 nM; in assay [2] it was 0.01 to 100 nM; in assay [3], 100 to 500 nM.

Take `CCc1nc2ccc(N3CCN(S(C)(=O)=O)CC3)cn2c1N(C)c1nc(-c2ccc(Cl)cc2)ns1` [Compound 188, 3-(4-chlorophenyl)-N-(2-ethyl-6-(4-(methylsulfonyl)piperazin-1-yl)imidazo[1,2-a]pyridin-3-yl)-N-methyl-1,2,4-thiadiazol-5-amine]: the IC50 was > 1000 nM in assay [1], 0.01 to 100 nM in assay [2] and > 1000 nM in assay [3].

`CCc1nc2ccc(C3CCN(CC(=O)N4CC(O)C4)CC3)cn2c1N(C)c1nc(-c2ccc(F)cc2)c(C(=O)C(F)(F)F)s1` [Compound 159, 1-(2-((2-ethyl-6-(1-(2-(3-hydroxyazetidin-1-yl)-2-oxoethyl)piperidin-4-yl)imidazo[1,2-a]pyridin-3-yl)(methyl)amino)-4-(4-fluorophenyl)thiazol-5-yl)-2,2,2-trifluoroethanone]: the IC50 in assay [1] fell in the range of 0.01 to 100 nM; in assay [2] it was 0.01 to 100 nM; in assay [3], 100 to 500 nM.

For `CCc1nc2ccc(C3CCN(S(C)(=O)=O)CC3)cn2c1N(C)c1nc(-c2ccc(F)cc2)c(CO)s1` [Compound 147, (2-((2-ethyl-6-(1-(methylsulfonyl)piperidin-4-yl)imidazo[1,2-a]pyridin-3-yl)(methyl)amino)-4-(4-fluorophenyl)thiazol-5-yl)methanol], the concentration for half-maximal inhibition (IC50) in assay [1] lay in the range of 100 to 500 nM; in assay [2] it was 0.01 to 100 nM; in assay [3], 100 to 500 nM.

`CCc1nc2ccc(C3CCN(CC(=O)N(C)C)CC3)cn2c1N(C)c1nc(-c2ccc(F)cc2)cs1` [Compound 114, 2-(4-(2-ethyl-3-((4-(4-fluorophenyl)thiazol-2-yl)(methyl)amino)imidazo[1,2-a]pyridin-6-yl)piperidin-1-yl)-N,N-dimethylacetamide]: the IC50 in assay [1] fell in the range of 100 to 500 nM; in assay [2], 0.01 to 100 nM; in assay [3], 500 to 1000 nM.

Consider `CCc1nc2ccc(C3CCN(CC(=O)N4CCCC4)CC3)cn2c1N(C)c1nc(-c2ccc(F)cc2)cs1` [Compound 115, 2-(4-(2-ethyl-3-((4-(4-fluorophenyl)thiazol-2-yl)(methyl)amino)imidazo[1,2-a]pyridin-6-yl)piperidin-1-yl)-1-(pyrrolidin-1-yl)ethanone], for which the IC50 in assay [1], in assay [2] and in assay [3] was 0.01 to 100 nM in each case.

Turning to `CCc1nc2ccc(C3CCN(CC(=O)N4CC[C@@H](O)C4)CC3)cn2c1N(C)c1nc(-c2ccc(F)cc2)cs1` [Compound 111, (R)-2-(4-(2-ethyl-3-((4-(4-fluorophenyl)thiazol-2-yl)(methyl)amino)imidazo[1,2-a]pyridin-6-yl)piperidin-1-yl)-1-(3-hydroxypyrrolidin-1-yl)ethanone], the IC50 is 100 to 500 nM in assay [1], 0.01 to 100 nM in assay [2] and 500 to 1000 nM in assay [3].

As to `CCc1nc2ccc(C3CCN(S(C)(=O)=O)CC3)cn2c1N(C)c1nc(-c2ccc(F)cc2C#N)cs1` [Compound 96, 2-(2-((2-ethyl-6-(1-(methylsulfonyl)piperidin-4-yl)imidazo [1,2-a]pyridin-3-yl)(methyl)amino)thiazol-4-yl)-5-fluorobenzonitrile], the results for the IC50 in assay [1], in assay [2] and in assay [3] were 100 to 500 nM, 0.01 to 100 nM and 0.01 to 100 nM, respectively.

Take `CCc1nc2ccc(C3=CCN(S(C)(=O)=O)CC3)cn2c1N(C)c1nc(-c2ccc(F)cc2)cs1` [Compound 66, N-(2-ethyl-6-(1-(methylsulfonyl)-1,2,3,6-tetrahydropyridin-4-yl)imidazo[1,2-a]pyridin-3-yl)-4-(4-fluorophenyl)-N-methylthiazol-2-amine]: the values for the half-inhibitory concentration (IC50) in assay [1], in assay [2] and in assay [3] were > 1000 nM, 0.01 to 100 nM and > 1000 nM, respectively.

Consider `CCc1nc2ccc(C3CCN(CC(=O)N4CC(O)C4)CC3)cn2c1N(C)c1nc(-c2ccc(F)cc2)c(CO)s1` [Compound 156, 2-(4-(2-ethyl-3-((4-(4-fluorophenyl)-5-(hydroxymethyl)thiazol-2-yl)(methyl)amino)imidazo[1,2-a]pyridin-6-yl)piperidin-1-yl)-1-(3-hydroxyazetidin-1-yl)ethanone], for which the IC50 in assay [1] was 500 to 1000 nM; in assay [2], 0.01 to 100 nM; in assay [3], > 1000 nM.

For the compound `CCc1nc2ccc(N3CCN(C(=O)[C@H](C)O)CC3)cn2c1N(C)c1nc(-c2ccc(F)cc2)cs1` [Compound 203, (S)-1-(4-(2-ethyl-3-((4-(4-fluorophenyl)thiazol-2-yl)(methyl)amino)imidazo[1,2-a]pyridin-6-yl)piperazin-1-yl)-2-hydroxypropan-1-one], the IC50 in assay [1] was > 1000 nM; in assay [2], 0.01 to 100 nM; in assay [3], > 1000 nM.

With `CCc1nc2ccc(C3CCN(CC(=O)N4CC(CO)C4)CC3)cn2c1N(C)c1nc(-c2ccc(F)cc2)cs1` [Compound 113, 2-(4-(2-ethyl-3-((4-(4-fluorophenyl)thiazol-2-yl)(methyl)amino)imidazo[1,2-a]pyridin-6-yl)piperidin-1-yl)-1-(3-(hydroxymethyl)azetidin-1-yl) ethanone], the half-maximal inhibitory concentration (IC50) in assay [1] was 100 to 500 nM; in assay [2], 0.01 to 100 nM; in assay [3], 100 to 500 nM.

Take `CCc1nc2ccc(C3CCN(S(C)(=O)=O)CC3)cn2c1N(C)c1nc(-c2ccc(F)cc2C)cs1` [Compound 98, N-(2-ethyl-6-(1-(methylsulfonyl)piperidin-4-yl)imidazo[1,2-a]pyridin-3-yl)-4-(4-fluoro-2-methylphenyl)-N-methylthiazol-2-amine]: the IC50 is 500 to 1000 nM in assay [1], 0.01 to 100 nM in assay [2] and 100 to 500 nM in assay [3].

As for `CCc1nc2ccc(N3CCN(Cc4ncco4)CC3)cn2c1N(C)c1nc(-c2ccc(F)cc2)cs1` [Compound 40], the figures for the IC50 in assay [1], in assay [2] and in assay [3] were > 1000 nM, 0.01 to 100 nM and 500 to 1000 nM, respectively.

With `CCc1nc2ccc(C3CCN(CC(=O)N4CC(O)C4)CC3)cn2c1N(C)c1nc(-c2ccc(F)cc2)c(C#N)s1` [Compound 141, 2-((2-ethyl-6-(1-(2-(3-hydroxyazetidin-1-yl)-2-oxoethyl)piperidin-4-yl)imidazo[1,2-a]pyridin-3-yl)(methyl)amino)-4-(4-fluorophenyl)thiazole-5-carbonitrile], the half-inhibitory concentration (IC50) in assay [1], in assay [2] and in assay [3] was 0.01 to 100 nM each time.

`CCc1nc2ccc(C3CCN(S(=O)(=O)CCN4CCOCC4)CC3)cn2c1N(C)c1nc(-c2ccc(F)cc2)cs1` [Compound 91, N-(2-ethyl-6-(1-(2-morpholinoethylsulfonyl)piperidin-4 yl)imidazo[1,2-a]pyridin-3-yl)-4-(4-fluorophenyl)-N-methylthiazol-2-amine]: the IC50 in assay [1] was 500 to 1000 nM; in assay [2], 0.01 to 100 nM; in assay [3], > 1000 nM.

Consider `CCc1nc2ccc(C3CCN(S(=O)(=O)CCCO)CC3)cn2c1N(C)c1nc(-c2ccc(F)cc2)cs1` [Compound 94, 3-[4-(2-Ethyl-3-{[4-(4-fluoro-phenyl)-thiazol-2-yl]-methyl-amino}-imidazo[1,2-a]pyridin-6-yl)-piperidine-1-sulfonyl]-propan-1-ol], for which the IC50 in assay [1] was in the range of 500 to 1000 nM; in assay [2], 0.01 to 100 nM; in assay [3], 500 to 1000 nM.

`CCc1nc2ccc(C3CCN(CC(=O)N4CC(O)C4)CC3)cn2c1N(C)c1nc(-c2ccc(F)cc2C#N)cs1` [Compound 170, 2-(2-((2-ethyl-6-(1-(2-(3-hydroxyazetidin-1-yl)-2-oxoethyl)piperidin-4-yl)imidazo[1,2-a]pyridin-3-yl)(methyl)amino)thiazol-4-yl)-5-fluorobenzonitrile]: the results for the IC50 in assay [1], in assay [2] and in assay [3] were 0.01 to 100 nM, 0.01 to 100 nM and 100 to 500 nM, respectively.

A word on the IC50: it is the concentration needed to halve the response being measured.
